Results as given in US7842695B2, “Substituted pyrazole compounds” (Merck Patent GmbH, priority 2003, dated 2010).

Target: 5-HT2A receptors (UniProt P14842)
Experiment: in-vitro affinity to 5-HT2A receptors, [3H]ketanserine displacement (Example A1)
Assay type: binding
From the text: The 5-HT2A receptors are exposed both to [^3H]ketanserine (a substance known for its affinity to the receptor) and also to the test compound. The decrease in the affinity of [^3H]ketanserine to the receptor is an indication of the affinity of the test substance to the 5-HT2A receptor.

| SMILES | IC50 |
| --- | --- |
| OCCCCNCc1cnn(-c2ccc(-c3ccc(F)cc3)cc2)c1-c1ccco1 [Example 617, 4-{[1-(4′-Fluorobiphenyl-4-yl)-5-furan-2-yl-1H-pyrazol-4-ylmethyl]amino}butan-1-ol] | 32 nM |
| CC1CCCN1Cc1cnn(-c2ccc(-c3cccc(F)c3)cc2)c1-c1ccco1 (stereo not drawn) [Example 620, 1-(3′-Fluorobiphenyl-4-yl)-5-furan-2-yl-4-(2-methylpyrrolidin-1-ylmethyl)-1H-pyrazole] | 34 nM |
| Fc1ccc(-c2ccc(-n3ncc(CNC4CN5CCC4CC5)c3-c3ccco3)cc2)cc1 (stereo not drawn) [Example 621] | 34 nM |
| CCCCN(Cc1cnn(-c2ccc(-c3ccc(F)cc3)cc2)c1-c1ccco1)Cc1cnn(-c2ccc(-c3ccc(F)cc3)cc2)c1-c1ccco1 [Example 622, Butylbis-[1-(4′-fluorobiphenyl-4-yl)-5-furan-2-yl-1H-pyrazol-4-ylmethyl]amine] | 34 nM |
| COc1cccc(-c2c(CN3CCN(C)CC3)cnn2-c2ccc(-c3ccc(F)cc3)cc2)c1 [Example 627, 1-[1-(4′-Fluorobiphenyl-4-yl)-5-(3-methoxyphenyl)-1H-pyrazol-4-ylmethyl]-4-methylpiperazine] | 36 nM |
| CC(C)CCNCc1cnn(-c2ccc(-c3ccc(F)cc3)cc2)c1-c1ccco1 [Example 628, [1-(4′-Fluorobiphenyl-4-yl)-5-furan-2-yl-1H-pyrazol-4-ylmethyl]-(3-methylbutyl)amine] | 36 nM |
| CN1CCN(Cc2cnn(-c3ccc(-c4ccc(F)cc4)cc3)c2-c2ccncc2)CC1 [Example 629, 1-[1-(4′-Fluorobiphenyl-4-yl)-5-pyridin-4-yl-1H-pyrazol-4-ylmethyl]-4-methylpiperazine] | 37 nM |
| NC1CCN(Cc2cnn(-c3ccc(-c4ccc5c(c4)OCO5)cc3)c2-c2ccco2)CC1 [Example 631, 1-[1-(4-Benzo-1,3-dioxol-5-ylphenyl)-5-furan-2-yl-1H-pyrazol-4-ylmethyl]piperidin-4-ylamine] | 39 nM |
| Fc1ccccc1-c1c(CCN2CCOCC2)cnn1-c1ccc(-c2ccccc2)cc1 [Example 632, 4-{2-[1-Biphenyl-4-yl-5-(2-fluorophenyl)-1H-pyrazol-4-yl]ethyl}morpholine] | 40 nM |
| CCC(CC)CNCc1cnn(-c2ccc(-c3ccc(OC)cc3)cc2)c1-c1ccco1 [Example 637] | 42 nM |
| CC(C)(C)OC(=O)N1CCN(Cc2cnn(-c3ccc(-c4cccc(F)c4)cc3)c2-c2ccco2)CC1 [Example 638, tert-Butyl 4-[1-(3′-Fluorobiphenyl-4-yl)-5-furan-2-yl-1H-pyrazol-4-ylmethyl]piperazine-1-carboxylate] | 42 nM |
| COc1ccc(-c2ccc(-n3ncc(CNCc4ccccn4)c3-c3ccco3)cc2)cc1 [Example 641, [5-Furan-2-yl-1-(4′-methoxybiphenyl-4-yl)-1H-pyrazol-4-ylmethyl]pyridin-2-ylmethylamine] | 46 nM |
| CCC(CO)NCc1cnn(-c2ccc(-c3ccc(F)cc3)cc2)c1-c1ccco1 (stereo not drawn) [Example 642, 2-{[1-(4′-Fluorobiphenyl-4-yl)-5-furan-2-yl-1H-pyrazol-4-ylmethyl]amino}butan-1-ol] | 47 nM |
| O=C1CN(Cc2cnn(-c3ccc(-c4cccc(F)c4)cc3)c2-c2ccco2)CCN1 [Example 645, 4-[1-(3′-Fluorobiphenyl-4-yl)-5-furan-2-yl-1H-pyrazol-4-ylmethyl]piperazin-2-one] | 49 nM |
| OC1CCCN(Cc2cnn(-c3ccc(-c4ccc(F)cc4)cc3)c2-c2ccco2)C1 (stereo not drawn) [Example 646, 1-[1-(4′-Fluorobiphenyl-4-yl)-5-furan-2-yl-1H-pyrazol-4-ylmethyl]piperidin-3-ol] | 50 nM |
| COc1ccc(-c2ccc(-n3ncc(CN4CCN(C)CC4)c3-c3ccccc3F)cc2)cn1 [Example 648, 1-{5-(2-Fluorophenyl)-1-[4-(6-methoxypyridin-3-yl)phenyl]-1H-pyrazol-4-ylmethyl}-4-methylpiperazine] | 53 nM |
| CN1CCN(Cc2cnn(-c3ccc(-c4ccc(C#N)s4)cc3)c2-c2ccccc2F)CC1 [Example 649, 5-{4-[5-(2-Fluorophenyl)-4-(4-methylpiperazin-1-ylmethyl)pyrazol-1-yl]phenyl}thiophene-2-carbonitrile] | 54 nM |
| CCN1CCN(Cc2cnn(-c3ccc(-c4ccc(F)cc4)cc3)c2-c2cccc(Cl)c2)CC1 [Example 650, 1-[5-(3-Chlorophenyl)-1-(4′-fluorobiphenyl-4-yl)-1H-pyrazol-4-ylmethyl]-4-ethylpiperazine] | 54 nM |
| CN1CCN(Cc2cnn(-c3ccc(-c4ccc5c(c4)OCCO5)cc3)c2-n2cccc2)CC1 [Example 651, 1-{1-[4-(2,3-Dihydrobenzo-1,4-dioxin-6-yl)phenyl]-5-pyrrol-1-yl-1H-pyrazol-4-ylmethyl}-4-methylpiperazine] | 55 nM |
| NC1CCN(Cc2cnn(-c3ccc(-c4ccc5c(c4)OCCO5)cc3)c2-c2ccco2)CC1 [Example 652, 1-{1-[4-(2,3-Dihydrobenzo-1,4-dioxin-6-yl)phenyl]-5-furan-2-yl-1H-pyrazol-4-ylmethyl}piperidin-4-ylamine] | 55 nM |

| SMILES | IC50 |
| --- | --- |
| CN1CCN(Cc2cnn(-c3ccc(-c4ccc[nH]4)cc3)c2-c2ccccc2F)CC1 [Example 653, 1-{5-(2-Fluorophenyl)-1-[4-(1H-pyrrol-2-yl)phenyl]-1H-pyrazol-4-ylmethyl}-4-methylpiperazine] | 58 nM |
| CC(C)CNCc1cnn(-c2ccc(-c3ccc(F)cc3)cc2)c1-c1ccco1 [Example 654, [1-(4′-Fluorobiphenyl-4-yl)-5-furan-2-yl-1H-pyrazol-4-ylmethyl]isobutylamine] | 61 nM |
| Fc1ccc(-c2ccc(-n3ncc(CNCCc4ccncc4)c3-c3ccco3)cc2)cc1 [Example 655, [1-(4′-Fluorobiphenyl-4-yl)-5-furan-2-yl-1H-pyrazol-4-ylmethyl]-(2-pyridin-4-ylethyl)amine] | 67 nM |
| COc1ccc(-c2ccc(-n3ncc(CNCc4cc[nH]n4)c3-c3ccco3)cc2)cc1 [Example 656, [5-Furan-2-yl-1-(4′-methoxybiphenyl-4-yl)-1H-pyrazol-4-ylmethyl]-(1H-pyrazol-3-ylmethyl)amine] | 71 nM |
| CCCN1CCN(Cc2cnn(-c3ccc(-c4ccc(F)cc4)cc3)c2-c2ccoc2)CC1 [Example 657, 1-[1-(4′-Fluorobiphenyl-4-yl)-5-furan-3-yl-1H-pyrazol-4-ylmethyl]-4-propylpiperazine] | 73 nM |
| CN1CCN(Cc2cnn(-c3ccc(-c4ccc(F)cc4)cc3)c2-n2cccc2)CC1 [Example 658, 1-[1-(4′-Fluorobiphenyl-4-yl)-5-pyrrol-1-yl-1H-pyrazol-4-ylmethyl]-4-methylpiperazine] | 74 nM |
| CCN(CC)Cc1cnn(-c2ccc(-c3ccc(F)cc3)cc2)c1-c1ccoc1 [Example 662, Diethyl-[1-(4′-fluorobiphenyl-4-yl)-5-furan-3-yl-1H-pyrazol-4-ylmethyl]amine] | 78 nM |
| CN1CCN(Cc2cnn(-c3ccc(-c4ccc(S(C)(=O)=O)cc4)cc3)c2-c2ccccc2F)CC1 [Example 663, 1-[5-(2-Fluorophenyl)-1-(4′-methanesulfonylbiphenyl-4-yl)-1H-pyrazol-4-ylmethyl]-4-methylpiperazine] | 85 nM |
| COCCN1CCN(Cc2cnn(-c3ccc(-c4ccc(F)cc4)cc3)c2-c2ccoc2)CC1 [Example 664, 1-[1-(4′-Fluorobiphenyl-4-yl)-5-furan-3-yl-1H-pyrazol-4-ylmethyl]-4-(2-methoxyethyl)piperazine] | 85 nM |
| COc1cccc(-c2c(CN3CCC(O)C3)cnn2-c2ccc(-c3ccc(F)cc3)cc2)c1 (stereo not drawn) [Example 665, 1-[1-(4′-Fluorobiphenyl-4-yl)-5-(3-methoxyphenyl)-1H-pyrazol-4-ylmethyl]pyrrolidin-3-ol] | 91 nM |
| OCCOCCNCc1cnn(-c2ccc(-c3ccc(F)cc3)cc2)c1-c1ccco1 [Example 666, 2-(2-{[1-(4′-Fluorobiphenyl-4-yl)-5-furan-2-yl-1H-pyrazol-4-ylmethyl]amino}ethoxy)ethanol] | 92 nM |
| CC#Cc1ccc(-c2ccc(-n3ncc(CN4CCN(C)CC4)c3-c3ccccc3F)cc2)c(F)c1 [Example 667, 1-[5-(2-Fluorophenyl)-1-(2′-fluoro-4′-prop-1-ynylbiphenyl-4-yl)-1H-pyrazol-4-ylmethyl]-4-methylpiperazine] | 93 nM |
| OCCCNCc1cnn(-c2ccc(-c3ccc(F)cc3)cc2)c1-c1ccco1 [Example 668, 3-{[1-(4′-Fluorobiphenyl-4-yl)-5-furan-2-yl-1H-pyrazol-4-ylmethyl]amino}propan-1-ol] | 94 nM |
| CN(CCC#N)Cc1cnn(-c2ccc(-c3ccc(F)cc3)cc2)c1-c1ccco1 [Example 669, 3-{[1-(4′-Fluorobiphenyl-4-yl)-5-furan-2-yl-1H-pyrazol-4-ylmethyl]methylamino}propionitrile] | 95 nM |
| OC1CCN(Cc2cnn(-c3ccc(-c4ccc(F)cc4)cc3)c2-c2ccoc2)C1 (stereo not drawn) [Example 670, 1-[1-(4′-Fluorobiphenyl-4-yl)-5-furan-3-yl-1H-pyrazol-4-ylmethyl]pyrrolidin-3-ol] | 96 nM |
| COc1ccc(-c2c(CN3CCN(C)CC3)cnn2-c2ccc(-c3ccc(F)cc3)cc2)cc1 [Example 671, 1-[1-(4′-Fluorobiphenyl-4-yl)-5-(4-methoxyphenyl)-1H-pyrazol-4-ylmethyl]-4-methylpiperazine] | 100 nM |
| CCN1CCN(Cc2cnn(-c3ccc(-c4ccc(F)cc4)cc3)c2-c2c(C)noc2C)CC1 [Example 672, 1-[5-(3,5-Dimethylisoxazol-4-yl)-1-(4′-fluorobiphenyl-4-yl)-1H-pyrazol-4-ylmethyl]-4-ethylpiperazine] | 100 nM |
| NC1CCN(Cc2cnn(-c3ccc(-c4cccc(F)c4)cc3)c2-c2ccco2)CC1 [Example 673, 1-[1-(3′-Fluorobiphenyl-4-yl)-5-furan-2-yl-1H-pyrazol-4-ylmethyl]piperidin-4-ylamine] | 120 nM |
| CCN(CC)Cc1cnn(-c2ccc(-c3ccc(F)cc3)cn2)c1-c1ccco1 [Example 675, Diethyl-{1-[5-(4-fluorophenyl)pyridin-2-yl]-5-furan-2-yl-1H-pyrazol-4-ylmethyl}amine] | 130 nM |
